pKd: −log10 of the molar value.

This assay has as its target T1, pregnane X receptor (PXR) (Homo sapiens, UniProt O75469).
T1 construct: gene NR1I2
T1 sequence (O75469 106-434): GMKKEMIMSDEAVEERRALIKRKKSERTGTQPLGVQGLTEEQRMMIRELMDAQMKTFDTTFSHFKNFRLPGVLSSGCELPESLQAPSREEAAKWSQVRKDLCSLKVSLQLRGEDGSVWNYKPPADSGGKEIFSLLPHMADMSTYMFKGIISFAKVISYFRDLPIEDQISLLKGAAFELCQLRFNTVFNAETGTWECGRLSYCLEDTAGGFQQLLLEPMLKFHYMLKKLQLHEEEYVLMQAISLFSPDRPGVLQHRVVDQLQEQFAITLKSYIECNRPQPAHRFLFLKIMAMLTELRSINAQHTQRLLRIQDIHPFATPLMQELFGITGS
The assay is described as follows: biochemical.

`COc1cc2c(c(OC)c1OC)-c1c(cc3c(c1OC)OCO3)CC(C)C(C)C2` (stereo not shown) [Sin B, Schisandrin B]: the pKd (as a rule, −log10 of the Kd, conventionally taken in molar units) was 5.18.
